For data set [1] the following is noted: 101.33 kPa, Liquid.
Data set [2] is described as follows: refractive index (Na D-line) (dimensionless). Particulars: 101.33 kPa, Liquid, Standard Abbe refractometry.

± gives the expanded uncertainty stated by the source.

A word on the mass density: it is mass per unit of volume. The term refractive index denotes the speed of light in vacuum divided by its phase velocity in the sample.

As to `OCCO` [1,2-ethanediol], in data set [1] (293.15 K), the mass density came to 1115.52 ± 0.71 kg/m3. Also, in data set [2] (293.15 K), the refractive index came out at 1.43184 ± 0.0007.
As for `OCCOCCOCCO` [triethylene glycol], the mass density in data set [1] (288 K) is given as 1127.43 ± 0.74 kg/m3. In addition, the refractive index in data set [2] (293.15 K) amounted to 1.45314 ± 0.0007.
On to `CC(O)CO` (configuration not stated) [1,2-propanediol], for which the mass density in data set [1] (293.15 K) amounted to 1032.83 ± 0.48 kg/m3. For the same molecule, the refractive index in data set [2] (293.15 K) amounted to 1.43143 ± 0.0007.
Consider `C=CC(C)(O)CCC=C(C)C` (configuration not stated) [3,7-dimethyl-1,6-octadien-3-ol], for which the mass density in data set [1] (288 K) is reported as 870.04 ± 2.7 kg/m3. Moreover, the refractive index in data set [2] (293.15 K) is given as 1.46272 ± 0.0009.
In the case of `C=C(C)C1CC=C(C)CC1` (configuration not stated) [1-methyl-4-(1-methylethenyl)cyclohexene], the mass density in data set [1] (294 K) is reported as 840.24 ± 2.8 kg/m3. Besides, the refractive index in data set [2] (292 K) came out at 1.47247 ± 0.0009.
With `OCCOCCO` [diethylene glycol], in data set [1] (288 K), the mass density turned out to be 1119.74 ± 0.72 kg/m3. Further, the refractive index in data set [2] (293.15 K) is recorded as 1.44724 ± 0.0007.
